Measured values reported in US20120202885A1, “METHODS, ASSAYS AND COMPOSITIONS FOR TREATING RETINOL-RELATED DISEASES” (ReVision Therapeutics, Inc., priority 2004, published 2012).
Values belong to the compound of their own block, whether it stands above or below them.

Tests used:
TTR binding to RBP = TTR binding to RBP (Homo sapiens, UniProt P02753); assay: Size exclusion study of transthyretin (TTR) binding to RBP; details: 10 μM Apo-RBP; for binding of ligand-RBP to TTR: gel filtration, 360/330 nm absorbance
Experimental: Apo-RBP at 10 μM was incubated with […] in PBS at room temperature for 1 hour. 10 μM of TTR was then added to the solution, and the mixture was incubated for another hour at room temperature. […] of the sample mixtures with and without TTR addition were analyzed by BioRad Bio-Sil SEC 125 Gel Filtration Column (300×7.8 mm). In control experiments, atROL-RBP and atROL-RBP-TTR mixture were analyzed in the same manner.

[1] = target: Retinol Binding Protein (RBP) (Homo sapiens, UniProt P02753); assay: Fluorescence quenching study of MPR binding to retinol binding protein
Experimental: Apo-RBP at 0.5 μM was incubated with 0, 0.25, 0.5, 1 and 2 μM of MPR in PBS at room temperature for 1 hour, respectively. As controls, the same concentration of Apo-RBP was also incubated with 1 μM of HPR or 1 μM of atROL. All mixtures contained 0.2% Ethanol (v/v). The emission spectra were measured between 290 nm to 550 nm with excitation wavelength at 280 nm and 3 nm bandpass.

ABCA4−/− mice = assay: Drug holiday after 28 days of HPR: A2E and precursors in eyecup extracts (HPLC); assay type: in vivo; details: 28-day drug holiday
Experimental: HPR (10 mg/kg in DMSO) was administered to ABCA4−/− mice daily for a period of 28 days. Control ABCA4−/− mice received only DMSO for the same period. […] Importantly, the observed reductions in lipofuscin autofluorescence persist long after cessation of HPR therapy. HPR (10 mg/kg), or DMSO, administration was discontinued following 28 days of treatment and re-evaluated A2E and precursor levels after 2 weeks and after 4 weeks.
We examined eyecup extracts by HPLC and employed detection by absorbance and fluorimetry. Identity of the indicated peaks was confirmed by on-line spectral analysis and by co-elution with authentic standards. […] Further, the A2E and precursor (A2PE-H2 and A2PE) levels after a […] or 28-day drug holiday remained at or near the levels immediately following 28 days of treatment (i.e., ca. 50% reduction relative to control), although after the 28-day drug holiday, the amount of A2E and precursor (A2PE-H2 and A2PE) had increased by a few percentage points relative to the 12-day drug holiday levels. […] It is clear that peak fluorescence tracks with the abundance of A2E, A2PE and A2PE-H2.

retinol-RBP-TTR complex = retinol-RBP-TTR complex (Homo sapiens, UniProt P02753); assay: High-throughput FRET assay for RBP/TTR interaction; assay type: binding; details: conditions as for HPR, FIG. 6
Excerpt: Reduction of serum retinol and RBP are correlated with concomitant reductions in toxic lipofuscin fluorophores. Because compounds that affect RBP-TTR interaction will directly affect fluorophore levels in the eye, a high-throughput screen for small molecules which prevent interaction of RBP with TTR was developed. This screen employs probe-labeled forms of RBP and TTR which participate in a unique fluorescence resonance energy transfer (FRET) event when complexed. Compounds which interfere with RBP-TTR interaction prevent FRET. Sample spectra taken during the course of this type of assay are shown, in FIG. 4. […] The sample is incubated at 37° C. for 30 min and then illuminated with 330 nm light. The emission spectra are shown in the range of 400-600 nm. HPR binds to RBP and prevents interaction with TTR, and here this property of HPR is utilized here to validate the ability of this screen to detect inhibition of RBP-TTR interaction. […] Additionally, the design of this assay permits discrimination between compounds which interact with RBP versus those which interact with TTR. Thus, by using two distinct excitation energies (280 nm and 330 nm, for protein and retinol, respectively) and implementing simultaneous monitoring of the retinol and TTR-probe fluorescence, the “target” of a presumptive small molecule can be easily determined.
Accordingly, HPR was employed at varied concentrations (from 0-4 μM), using the conditions specified in Example 7, to evaluate the high throughput assay.
The mechanism of action underlying this effect can be explained by the disruption of RBP-TTR interactions. In order to explore this possibility and to further validate the RBP-TTR screen, the effects of all-trans retinoic and 13-cis retinoic acid, using the conditions the conditions specified for analysis of HPR, were examined.

[2] = several investigators; Berni et al. 1993; cited from earlier work

binding of RBP to ligand (360 nm absorbance in RBP elution peak) (TTR binding to RBP): RBP binds to MPR | effect on binding of TTR to RBP (TTR binding to RBP; 10 μM TTR): inhibits the binding of TTR to RBP | binding of ligand-RBP to TTR (TTR binding to RBP; 10 μM TTR): did not bind to TTR | quenching of RBP fluorescence ([1]; 0.5 μM Apo-RBP, 0-2 μM MPR, room temperature 1 hour, excitation 280 nm): concentration-dependent quenching | degree of quenching compared with other ligands ([1]; controls at 1 μM): smaller than those by atROL and HPR | concentration at which quenching saturated ([1]; for 0.5 μM of RBP): 1 µM | detection of HPR or HPR metabolites in the eyes (ABCA4−/− mice): unable to detect
Structure (SMILES): COc1ccc(NC(=O)\C=C(C)/C=C/C=C(C)\C=C\C2=C(C)CCCC2(C)C)cc1 (stereo in doubt) [MPR, N-(4-methoxyphenyl)retinamide]

inhibition of RBP-TTR interaction (retinol-RBP-TTR complex): inhibitors of RBP-TTR interaction
Structure (SMILES): CC1=C(/C=C/C(C)=C/C=C/C(C)=C\C(=O)O)C(C)(C)CCC1 [13-cis retinoic acid, 13-cis-retinoic acid]

inhibition of RBP-TTR interaction (retinol-RBP-TTR complex): inhibitors of RBP-TTR interaction
Structure (SMILES): CC1=C(/C=C/C(C)=C/C=C/C(C)=C/C(=O)O)C(C)(C)CCC1 [all-trans retinoic, all-trans-retinoic acid]
reduction in circulating RBP and retinol [2]: observed in vivo

binding of ligand-RBP to TTR (TTR binding to RBP; 10 μM TTR): binds to TTR | binding to RBP ([1]; 1 μM ligand, 0.5 μM Apo-RBP): bind to RBP
Structure (SMILES): CC1=C(/C=C/C(C)=C/C=C/C(C)=C/CO)C(C)(C)CCC1 [atROL, all-trans retinol]
